Test results as given in patent US9254269B2, “Method of managing hypercortisolemia, headache disorders, neuropathic pain and related disorders” (Indus Biotech Private Limited, priority 2011, dated 2016).

What was measured:
5-HT1A receptor = target: T1, 5-HT1A receptor (Mus musculus, UniProt Q64264); assay: Forced swim test, alone and after 5-HT1A receptor antagonist NAN-190; assay type: in vivo, Swiss albino mice; settings: NAN-190 1 mg/kg p.o. alone
T1 construct: Male Swiss albino mice weighing 25-30 g were treated with antagonist of 5-HT1A receptor (NAN-190); from tissue; host or cells: whole living animal (male Swiss albino mice)
T1 sequence (Q64264 1-421): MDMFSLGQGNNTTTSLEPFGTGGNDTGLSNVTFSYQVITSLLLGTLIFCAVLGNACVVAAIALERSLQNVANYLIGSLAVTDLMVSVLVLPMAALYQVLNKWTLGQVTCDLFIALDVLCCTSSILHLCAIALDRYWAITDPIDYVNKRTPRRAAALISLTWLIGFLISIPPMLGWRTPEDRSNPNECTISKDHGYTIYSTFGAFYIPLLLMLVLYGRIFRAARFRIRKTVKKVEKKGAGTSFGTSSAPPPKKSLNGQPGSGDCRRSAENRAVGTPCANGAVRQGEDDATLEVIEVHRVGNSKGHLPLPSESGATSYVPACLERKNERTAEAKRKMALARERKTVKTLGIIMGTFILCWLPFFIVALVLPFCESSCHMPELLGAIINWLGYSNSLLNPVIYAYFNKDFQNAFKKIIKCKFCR
Description: The activity of the test composition was evaluated by first blocking the 5-HT1A receptor with an antagonist followed by treatment with the test composition. The activity was measured in terms of immobility time of the test animals subjected to forced swim test.
Procedure: Male Swiss albino mice weighing 25-30 g were treated with antagonist of 5-HT1A receptor (NAN-190) at 1 mg/kg (p.o.) followed by administration of test composition at either 10 mg/kg (p.o.) or 30 mg/kg (p.o.). One hour after treatment, the animals were subjected to forced swim test and the immobility time was measured. A cut-off time of 360 sec was used.

[1] = system: Nitroglycerine induced hyperalgesia in rats; assay: Tail flick response latency in nitroglycerine induced hyperalgesia, oral treatment; test composition 41% asiaticoside and 36% madecassoside; assay type: in vivo, Wistar rats; settings: 20 mg/kg p.o.

Compound | Immobility Time (5-HT1A receptor) [s] | % Reduction in Immobility Time (5-HT1A receptor; vs Normal Control) [%] | Response latency in tail flick ([1]; 0 min after treatment, 20 seconds cut off) | Response latency in tail flick ([1]; 30 min after treatment) | Response latency in tail flick ([1]; 60 min after treatment) | Response latency in tail flick ([1]; 90 min after treatment) | Response latency in tail flick ([1]; 120 min after treatment) | Response latency in tail flick ([1]; 180 min after treatment) | Response latency in tail flick ([1]; 240 min after treatment)
COc1ccccc1N1CCN(CCCCN2C(=O)c3ccccc3C2=O)CC1 [NAN-190] | 232.0 ± 1.63 | −8.26 |  |  |  |  |  |  | 
CC(C)=CCN1CCC2(C)c3cc(O)ccc3CC1C2C (stereo not drawn) [Pentazocine] |  |  | 8.42 ± 0.22 | 15.27 ± 0.26 | 15.23 ± 0.17 | 15.78 ± 0.24 | 15.50 ± 0.48 | 15.18 ± 0.45 | 15.03 ± 0.28
